Measured values reported in patent US10968183B2, “Small molecule FIEL1 inhibitor in inflammatory and fibrotic lung injury” (UNIVERSITY OF PITTSBURGH—OF THE COMMONWEALTH SYSTEM OF …, priority 2015, dated 2021).

Assays:
[1] = test system: DSS induced acute colonic inflammation in C57BL6 mice; experiment: Dextran sulfate sodium induced acute colonic inflammation in mice; type: in vivo; conditions: 2.5% DSS in water up to 7 days; drinking water 30 ug/ml, ~5 mg/kg/d
Method: C57BL6 mice were fed with water ad lib containing 2.5% dextran sulfate sodium (DSS) for up to 7 days. Mice were treated with either vehicle (control) or BC-1261 (administered into drinking water at 30 ug/ml, ˜5 mg/kg/d dosing). Colonic tissues were also analysed for TNFα, IL1 and IL6 shown in FIGS. 20E H&E staining was performed on colonic sections. The data in FIG. 20F represent n=6 mice/group, *P<0.05 versus DSS and **P<0.05 versus control. […] FIG. 20G provides pictures of the tissues at interest.
C57BL6 mice were fed with water ad lib containing 2.5% dextran sulfate sodium (DSS) for up to 7 days. Mice were treated with either vehicle (control) or BC-1261 (administered into drinking water at 30 ug/ml, ˜5 mg/kg/d dosing). Mice were then euthanized, the length of the colon and weight of the spleen were measured and graphed, shown in FIG. 20 B-D. Colonic tissues were also analysed for TNFα, IL1 and IL6 shown in FIG. 20E H&E staining was performed on colonic sections. The data in FIG. 20F represent n=6 mice/group, *P<0.05 versus DSS and **P<0.05 versus control.

[2] = test system: bleomycin-induced lung injury in C57BL/6J mice; experiment: Bleomycin lung fibrosis model in mice; type: in vivo; conditions: estimated 5 mg/kg/d; for lung (pulmonary) fibrosis: 7-21 days
Method: FIG. 7A. […] FIG. 7B. Structures of the BC-1480 backbone and lead compound BC-1485. FIG. 7C. FIEL1 protein was HIS-purified from FIEL1 expression in 293T cells using cobalt beads. Beads were then extensively washed prior to exposure to BC-1480 or BC-1485 at different concentrations (10^−4 to 100 μM). Purified PIAS4 protein was then incubated with drug-bound FIEL1 beads overnight. Beads were washed, and proteins were eluted and resolved on SDS-PAGE. The relative amounts of PIAS4 detected in the pull-downs was normalized to loading and quantified (n=2). FIG. 7D. MLE cells were exposed to BC-1480 or BC-1485 at various concentrations for 18 h. Cells were then collected and immunoblotted. FIGS. 7E-J. C57BL/6J mice were administered with bleomycin (0.05 U) for 7-21 days. Compounds BC-1480 and BC-1485 were given to mice through drinking water with an estimated dose of 5 mg/kg/d. Mice were euthanized, and lungs were lavaged with saline, harvested, and then homogenized. Lavage proteins, CXCL1, and total cell count were measured in FIGS. 7E-G. H. Survival studies of mice that were given bleomycin and compound treatments. Mice were carefully monitored over time; moribund, preterminal animals were immediately euthanized and recorded as deceased. Kaplan-Meier survival curves were generated using SPSS software (p<0.01 compared to Vehicle). Vehicle: n=24, BC-1480: n=13, BC-1485: n=12. FIG. 7I. Hydroxyproline contents were measured in lungs from 7, 14, and 21d after bleomycin challenge. FIG. 7J. Trichrome staining was performed on lung samples from E. Original magnification, ×10. *p<0.05 compared to Vehicle (t-test). Data are an average of two experiments (FIGS. 7E-J, 4-8 mice/group)
C57BL/6J mice were administered i.t. with bleomycin (0.05 U) for 7-21 days. Compounds BC-1480 and BC-1485 were given to mice through drinking water with an estimated dose of 5 mg/kg/d. Mice were then euthanized, and lungs were lavaged with saline, harvested, and then homogenized. Lavage IL-6 was measured in (FIG. 16A). Lavage cells were also processed for Wright-Giemsa stain; Lavage macrophages, neutrophils and lymphocytes were counted and graphed (FIGS. 16B-16D). H&E staining was performed on lung samples from A. Original magnification, ×10. *p<0.05 compared to Vehicle (t test). Data are an average of two experiments (A-E, 4-8 mice/group).
Murine lungs were dried and weighed prior to digestion with HCl. Hydroxyproline concentrations were measuring using methods previously described in Kesava Reddy et al., Clinical Biochemistry, 29(3): 225-229 (1996), and Neuman et al., J. of Biol. Chem., 184(1): 299-306 (1950). Hydroxyproline content was normalized to dry lung weight.
All procedures were approved by the University of Pittsburgh Institutional Animal Care and Use Committee. For fibrosis studies, male C57BL/6J mice were deeply anesthetized using a ketamine/xylazine mixture, and the larynx was well visualized under a fiber optic light source before endotracheal intubation with a 3/400 24-gauge plastic catheter. 10^7 CFU of lentivirus encoding genes for Empty (E), FIEL1, CON shRNA, or KIAA0317 shRNA was given i.t. for 144 h before administration of bleomycin (0.02 U˜0.05 U i.t.) for up to 21 days. Animals were euthanized and assayed for BAL protein, cell count, cytokines, and lung infiltrates. Survival studies were performed on mice that were given bleomycin (0.02 U˜0.05 U i.t.). Mice were carefully monitored over time; moribund, preterminal animals were immediately euthanized and recorded as deceased. For drug studies, mice were deeply anesthetized as above. Bleomycin (0.05 U i.t.) was given i.t. before BC-1480 or BC-1485 (5 mg/kg/d) was administered to the mice through their drinking water. 7-21d later, animals were euthanized and analyzed as above.

[3] = bleomycin 0.05 U i.t., up to 21 days, drinking water

CC(NC(=O)c1ccc(NS(=O)(=O)c2ccc3[nH]c(=O)[nH]c3c2)cc1)C(=O)N(C)C (centres unmarked) [BC-1485]
DSS induced acute colonic inflammation [1]: effectively reduces | lung hydroxyproline content ([2]; 7, 14 and 21 d after bleomycin): significant decrease | lung (pulmonary) fibrosis ([2]; bleomycin 0.05 U i.t.): marked decrease | lung (pulmonary) fibrosis ([2]; bleomycin 0.05 U i.t., listed as BC 1485): inhibition of pulmonary fibrosis | BAL CXCL1 levels [2, 3]: significantly decreased | BAL IL-6 levels [2, 3]: significantly decreased | BAL protein concentrations [2, 3]: significantly decreased | BAL total cell counts [2, 3]: significantly decreased | survival ([2]; bleomycin 0.05 U i.t., drinking water): significantly improved | lung collagen (Mason Trichrome staining) ([2]; bleomycin 0.05 U i.t.): Decreased | peribronchiolar and parenchymal fibrosis (H&E) ([2]; bleomycin 0.05 U i.t.): substantially decreased
